According to US20240075087A1, “COMPOSITIONS AND METHODS COMPRISING HEMP EXTRACT FOR THE TREATMENT OF ANIMALS IN NEED” (Portland Technology Holdings LLC, priority 2021, published 2024):

Tests used:
CYP2B11 = target: T1, CYP2B11 (Canis lupus familiaris, UniProt P24460); assay: CYP2B11 activity inhibition in pooled dog liver microsomes
T1 sequence (P24460 1-494): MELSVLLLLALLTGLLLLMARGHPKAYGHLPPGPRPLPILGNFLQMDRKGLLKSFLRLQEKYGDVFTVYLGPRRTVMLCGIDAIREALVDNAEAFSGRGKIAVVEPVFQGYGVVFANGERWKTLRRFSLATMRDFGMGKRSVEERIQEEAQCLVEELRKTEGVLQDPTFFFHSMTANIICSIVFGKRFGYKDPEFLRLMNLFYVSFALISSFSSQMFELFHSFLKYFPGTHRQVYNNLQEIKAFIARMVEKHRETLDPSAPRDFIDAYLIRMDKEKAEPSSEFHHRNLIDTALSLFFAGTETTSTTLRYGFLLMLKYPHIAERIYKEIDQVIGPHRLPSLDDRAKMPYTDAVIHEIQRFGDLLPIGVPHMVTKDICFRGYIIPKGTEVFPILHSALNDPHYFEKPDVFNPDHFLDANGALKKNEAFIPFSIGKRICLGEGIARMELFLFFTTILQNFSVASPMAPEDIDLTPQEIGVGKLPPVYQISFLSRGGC
Experimental: Inhibition potency (i.e. IC50) is determined by measuring the decrement in metabolism of P450-specific marker activities in pooled dog liver microsomes with increasing concentrations of CBD, CBDA, and hemp extracts. P450-specific markers include bupropion 6-hydroxylation (CYP2B11), dextromethorphan 0-demethylation (CYP2D15) and omeprazole sulfoxidation (CYP3A12). IC50 values are determined both with and without preincubation of liver microsomes with potential inhibitor to evaluate whether there is mechanism-based time-dependent inhibition.
The following parameters are assessed: (1) the rates of CBD and CBDA metabolism by dog liver microsomes and by 11 recombinant canine P450 enzymes; (2) the predicted percent contribution of each P450 to total CBD and CBDA metabolism in dog liver; and (3) IC50 values for inhibition of CYP2B11, CYP2D15 and CYP3A12 metabolism in dog liver, both with and without inhibitor preincubation.
FIGS. 13-15 show activity assays for CYP3A12 (FIGS. 13A and 13B), CYP2B11 (FIGS. 14A and 14B), and CYP2D15 (FIGS. 15A and 15B). Assays using either no preincubation (FIGS. 13A, 14A, and 15A) or 20 minutes of preincubation (FIGS. 13B, 14B, and 15B) were performed.

[1] = tested on: 17-71, CMT12 and D17 cell lines; assay: Time course Western blot of signalling pathways, autophagy and caspase 3; type: cell-based, canine
Experimental: Cells are plated on 100 mm tissue culture-treated plates and incubated overnight in complete medium until 60% confluency is reached. […] Cells are harvested and lysed at each time point for control and CBD treated cells using mammalian lysis buffer (25 mM Tris, 100 mM NaCl, 1 mM EDTA, 1% Triton X-100, pH 7.4), and then centrifuged for 5 minutes at 12 000 g at 4° C. The supernatant is collected and the protein concentration is determined using the Bradford assay (Coomassie-dye; ThermoFisher Scientific Pierce, Waltham, Massachusetts). […] Membranes are incubated overnight in primary antibody solutions at a dilution of 1:1000 in TBST on a rocking platform at 4° C. Primary antibodies confirmed as cross reactive with canine cells or tissues include mouse extracellular regulated kinase (ERK) (R&D Biosciences, Boston, Massachusetts); rabbit anti-protein kinase B (AKT), Ser473 phosphorylated-AKT, stress-activated protein kinase/jun-amino-terminal kinase (SAPK/JNK), Thr183/Tyr185 phosphorylated-SAPK/JNK, mammalian target of rapamycin (mTOR), Ser2448 phosphorylated-mTOR, anti-Thr202/Tyr204 phosphorylated p44/42 MAPK (ERK1/2), anti-p38, anti-phosphorylated p38, anti-p62 and anti-LC3 A/B (Cell Signalling Technology, Danvers, Massachusetts)(e.g., Syrjä P, Anwar T, Jokinen T, Kyöstilä K, Jäderlund K H, Cozzi F, Rohdin C, Hahn K, Wohlsein P, Baumgärtner W, Henke D, Oevermann A, Sukura A, Leeb T, Lohi H, and Eskelinen E L, Basal Autophagy Is Altered in Lagotto Romagnolo Dogs with an ATG4D Mutation, Vet Pathol, 2017 November, 54(6), pp. 953-963, doi: 10.1177/0300985817712793; Gordon I K, Ye F, and Kent M, Evaluation of the mammalian target of rapamycin pathway and the effect of rapamycin on target expression and cellular proliferation in osteosarcoma cells from dogs, Amer J Vet Res, 2008, 69, pp. 1079-1084; Ikari A, Atomi K, Kinjo Y, and Sugatani J, Magnesium deprivation inhibits a MEK-ERK cascade and cell proliferation in epithelial Madin-Darby canine kidney cells, Life Sci, 2010, 86, pp. 766-773; and Levine C B, Bayle J, Biourge V, and Wakshlag J J, Effects and synergy of feed ingredients on canine neoplastic cell proliferation, BMC Vet Res, 2016, 12(1), 159, which are incorporated herein by reference in their entirety). Membranes are washed three times with TBST and incubated at room temperature for 1 hour in the corresponding secondary anti-rabbit IgG or anti-mouse IgG horseradish peroxidase-conjugated antibody at a dilution of 1:2000 (Cell Signalling Technology, Danvers, MA). Membranes are washed three times with TBST and visualized with a chemi-luminescent reagent (Clarity Western ECL Substrate; Bio-Rad, Hercules, California). Digital images are captured using an imaging system (Biospectrum 410; UVP, Upland, California or FluorChem E; Cell Biosciences, San Jose, California). Each blot is performed twice from two different experiments to confirm findings.

C=C(C)[C@@H]1CCC(C)=C[C@H]1c1c(O)cc(CCCCC)cc1O [CBD, cannabidiol] was tested, and the IC50 (CYP2B11) was < 1 µM, the “time-dependent inhibition (TDI)” value (CYP2B11; CYP2B11, no preincubation vs 20 min preincubation, 10 μM) was “showed time-dependent inhibition (TDI)” and the “caspase 3 activation” value ([1]; 10 μg/mL CBD, 2, 4, 8 hours) was “activation of caspase 3 which can also be seen at 2 hours in the 17-71 cells, but is not evident until hour 8 in the CMT12 and D17 CBD treated cells”. For the same compound, the “AKT, phosphorylated-AKT, mTOR and phosphorylated-mTOR immunoblots” value ([1]; 10 μg/mL CBD, 2, 4 and 8 hours) was “no depression or increased intensity of the signal over time”, the “LC3II proportion of LC3 protein” value ([1]; 10 μg/mL CBD, 2 to 8 hours, all three cell lines) was “increase in the LC3II proportion of LC3 protein” and the “ERK and JNK phosphorylation” value ([1]; 10 μg/mL CBD, 8 hour time-course vs methanol vehicle) was “repeatable increases in both ERK and JNK phosphorylation across all three cell lines”. For the same compound, the “autophagy cargo carrier protein p62 (western blotting)” value ([1]; 10 μg/mL CBD, over 8 hours) was “marked decrease”, the “p38 phosphorylation and activation” value ([1]; CBD treatment) was “minimal influence on the p38 phosphorylation and activation” and the “cleaved caspase 3 (17 Kda) immunoblotting” value ([1]; after 8 and 16 hours of CBD treatment vs methanol vehicle control) was “cleaved caspase across all cell lines at both time points”.
